In the supplement of paper PMC12463676, “Small-molecule dissolution of stress granules by redox modulation benefits ALS models” (Nature Chemical Biology, 2025):

Key:
[1] = compound: O=[As]([O-])(O)O.[K+] [potassium arsenate]; assay: thermal stability z-score vs DMSO; higher = more thermally stabilized by treatment; conditions: HeLa; arsenate concentration 1 mM
Experimental: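 Cellular thermal proteome profiling in HeLa cells treated with 1 mM arsenate for 1 h (DMSO pretreatment), heated to ten temperatures (37-66.3 °C). Soluble protein was quantified by TMT mass spectrometry relative to DMSO controls; the thermal stability score was transformed to a z-score; mean of n = 3 experiments.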

[2] = compound: NC(=O)CCCCC1CCSS1 [lipoamide]; assay: as above; conditions: HeLa, lipoamide concentration 100 µM
Experimental: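 Cellular thermal proteome profiling in HeLa cells. Cells were treated with 100 µM lipoamide for 1 h, with or without 1 mM arsenate for a further 1 h, then heated to ten temperatures (37-66.3 °C), and soluble protein was quantified by TMT mass spectrometry relative to 0.1% DMSO controls. The thermal stability score (sum of log2 fold changes minus the abundance score) was transformed to a z-score; mean of n = 3 experiments.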

[3] = arsenate co-treatment: 1 mM arsenate 1 h
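Note: each temperature applied for 3 min, abundance score taken as mean log2 fold change at the two lowest temperatures, z-score obtained by mean subtraction and division by SD.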

Sequence of UniProt Q14147 (Q14147 whole entry): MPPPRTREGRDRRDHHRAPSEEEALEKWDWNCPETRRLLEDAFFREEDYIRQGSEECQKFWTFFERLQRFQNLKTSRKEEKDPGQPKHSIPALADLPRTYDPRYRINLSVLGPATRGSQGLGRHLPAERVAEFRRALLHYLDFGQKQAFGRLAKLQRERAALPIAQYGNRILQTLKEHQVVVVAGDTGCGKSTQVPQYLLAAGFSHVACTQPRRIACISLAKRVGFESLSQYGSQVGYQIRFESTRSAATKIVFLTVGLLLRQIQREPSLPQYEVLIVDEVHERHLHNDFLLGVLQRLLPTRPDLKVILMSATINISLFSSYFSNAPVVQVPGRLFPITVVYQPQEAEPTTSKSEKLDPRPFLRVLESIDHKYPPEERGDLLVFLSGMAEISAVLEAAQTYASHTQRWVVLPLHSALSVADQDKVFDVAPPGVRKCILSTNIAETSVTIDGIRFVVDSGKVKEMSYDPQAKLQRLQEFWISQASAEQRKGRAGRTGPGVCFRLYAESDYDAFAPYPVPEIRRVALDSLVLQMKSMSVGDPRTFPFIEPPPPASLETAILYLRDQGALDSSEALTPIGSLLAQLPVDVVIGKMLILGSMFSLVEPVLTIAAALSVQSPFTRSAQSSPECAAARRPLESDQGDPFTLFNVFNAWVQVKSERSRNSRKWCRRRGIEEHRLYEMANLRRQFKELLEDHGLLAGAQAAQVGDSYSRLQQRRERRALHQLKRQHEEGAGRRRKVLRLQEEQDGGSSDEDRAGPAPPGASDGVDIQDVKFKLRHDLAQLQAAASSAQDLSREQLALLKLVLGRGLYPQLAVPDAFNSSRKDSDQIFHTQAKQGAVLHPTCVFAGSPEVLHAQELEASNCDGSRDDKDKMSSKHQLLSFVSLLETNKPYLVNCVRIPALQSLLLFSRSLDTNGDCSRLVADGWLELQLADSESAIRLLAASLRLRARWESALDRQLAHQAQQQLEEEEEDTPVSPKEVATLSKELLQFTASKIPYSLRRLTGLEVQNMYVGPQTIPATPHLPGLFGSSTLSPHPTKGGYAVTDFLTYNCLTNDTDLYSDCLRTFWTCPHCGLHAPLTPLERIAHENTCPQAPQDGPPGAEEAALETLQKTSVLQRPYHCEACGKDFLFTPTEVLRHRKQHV
Sequence of UniProt Q9UHX1 (Q9UHX1 whole entry): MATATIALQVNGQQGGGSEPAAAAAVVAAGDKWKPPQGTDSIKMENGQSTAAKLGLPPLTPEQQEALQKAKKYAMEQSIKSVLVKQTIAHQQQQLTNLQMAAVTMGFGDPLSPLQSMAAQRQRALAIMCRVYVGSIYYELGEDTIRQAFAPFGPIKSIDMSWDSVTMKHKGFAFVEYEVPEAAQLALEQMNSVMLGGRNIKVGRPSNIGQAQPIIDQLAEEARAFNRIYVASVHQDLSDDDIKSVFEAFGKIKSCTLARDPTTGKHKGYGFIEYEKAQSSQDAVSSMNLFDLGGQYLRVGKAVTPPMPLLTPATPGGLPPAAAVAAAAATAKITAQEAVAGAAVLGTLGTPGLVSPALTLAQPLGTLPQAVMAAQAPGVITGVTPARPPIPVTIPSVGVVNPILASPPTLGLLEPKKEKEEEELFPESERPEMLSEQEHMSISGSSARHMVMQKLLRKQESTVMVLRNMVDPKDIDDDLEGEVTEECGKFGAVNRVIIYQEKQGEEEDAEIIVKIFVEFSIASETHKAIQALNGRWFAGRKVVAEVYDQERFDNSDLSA
Sequence of UniProt Q9NQT4 (Q9NQT4 whole entry): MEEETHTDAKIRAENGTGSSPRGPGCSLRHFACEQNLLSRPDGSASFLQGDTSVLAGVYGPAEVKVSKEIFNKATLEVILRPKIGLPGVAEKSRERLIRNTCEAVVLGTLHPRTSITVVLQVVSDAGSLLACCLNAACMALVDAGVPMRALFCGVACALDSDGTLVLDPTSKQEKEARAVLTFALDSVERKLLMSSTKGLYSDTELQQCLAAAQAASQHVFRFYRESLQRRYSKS
Sequence of UniProt O14907 (O14907 whole entry): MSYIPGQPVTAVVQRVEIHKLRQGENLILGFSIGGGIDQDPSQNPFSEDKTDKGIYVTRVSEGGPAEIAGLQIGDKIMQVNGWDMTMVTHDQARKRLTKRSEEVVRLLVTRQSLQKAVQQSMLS
Sequence of UniProt Q6ZNW5 (Q6ZNW5 whole entry): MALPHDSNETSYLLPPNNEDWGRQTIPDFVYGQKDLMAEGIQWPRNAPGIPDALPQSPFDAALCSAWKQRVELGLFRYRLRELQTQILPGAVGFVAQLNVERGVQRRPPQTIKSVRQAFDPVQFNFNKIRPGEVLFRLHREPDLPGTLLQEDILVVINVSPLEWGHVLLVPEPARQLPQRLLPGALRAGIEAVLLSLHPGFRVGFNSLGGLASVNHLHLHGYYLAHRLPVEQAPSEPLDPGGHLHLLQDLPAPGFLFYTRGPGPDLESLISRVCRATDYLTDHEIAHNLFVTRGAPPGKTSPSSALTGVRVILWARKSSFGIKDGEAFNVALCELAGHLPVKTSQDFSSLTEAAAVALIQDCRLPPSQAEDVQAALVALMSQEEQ
Sequence of UniProt Q86U90 (Q86U90 whole entry): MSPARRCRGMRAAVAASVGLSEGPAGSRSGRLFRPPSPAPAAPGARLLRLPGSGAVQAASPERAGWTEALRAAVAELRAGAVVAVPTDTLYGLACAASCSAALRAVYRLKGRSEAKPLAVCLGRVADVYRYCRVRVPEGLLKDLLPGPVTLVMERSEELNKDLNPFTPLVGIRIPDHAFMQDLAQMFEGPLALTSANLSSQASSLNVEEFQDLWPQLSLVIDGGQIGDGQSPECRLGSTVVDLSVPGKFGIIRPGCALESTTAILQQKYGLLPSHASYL
Sequence of UniProt Q9Y2U8 (Q9Y2U8 whole entry): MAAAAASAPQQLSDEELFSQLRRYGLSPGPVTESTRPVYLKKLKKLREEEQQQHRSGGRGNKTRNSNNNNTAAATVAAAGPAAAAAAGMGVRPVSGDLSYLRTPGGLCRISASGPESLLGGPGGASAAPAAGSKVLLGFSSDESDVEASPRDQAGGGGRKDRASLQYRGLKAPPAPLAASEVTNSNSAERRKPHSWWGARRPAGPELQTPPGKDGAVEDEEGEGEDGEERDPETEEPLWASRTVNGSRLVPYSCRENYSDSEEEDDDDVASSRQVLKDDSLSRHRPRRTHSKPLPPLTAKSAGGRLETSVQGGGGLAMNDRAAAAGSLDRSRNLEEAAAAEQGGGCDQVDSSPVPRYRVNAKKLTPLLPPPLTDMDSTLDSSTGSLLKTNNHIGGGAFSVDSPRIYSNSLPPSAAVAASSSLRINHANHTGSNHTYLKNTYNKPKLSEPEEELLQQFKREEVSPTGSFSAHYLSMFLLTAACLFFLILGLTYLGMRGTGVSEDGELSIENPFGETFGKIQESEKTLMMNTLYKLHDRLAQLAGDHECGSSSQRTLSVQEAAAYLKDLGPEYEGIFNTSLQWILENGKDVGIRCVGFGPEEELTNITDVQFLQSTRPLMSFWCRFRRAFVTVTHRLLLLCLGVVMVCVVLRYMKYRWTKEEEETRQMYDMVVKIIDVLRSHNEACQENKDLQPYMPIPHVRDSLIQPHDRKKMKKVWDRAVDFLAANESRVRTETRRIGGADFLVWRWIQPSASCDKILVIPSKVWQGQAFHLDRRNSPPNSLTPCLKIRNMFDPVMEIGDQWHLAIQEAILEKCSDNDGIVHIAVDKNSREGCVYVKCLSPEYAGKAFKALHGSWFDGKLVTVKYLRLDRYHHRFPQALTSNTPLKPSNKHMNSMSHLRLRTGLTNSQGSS
Sequence of UniProt P30740 (P30740 whole entry): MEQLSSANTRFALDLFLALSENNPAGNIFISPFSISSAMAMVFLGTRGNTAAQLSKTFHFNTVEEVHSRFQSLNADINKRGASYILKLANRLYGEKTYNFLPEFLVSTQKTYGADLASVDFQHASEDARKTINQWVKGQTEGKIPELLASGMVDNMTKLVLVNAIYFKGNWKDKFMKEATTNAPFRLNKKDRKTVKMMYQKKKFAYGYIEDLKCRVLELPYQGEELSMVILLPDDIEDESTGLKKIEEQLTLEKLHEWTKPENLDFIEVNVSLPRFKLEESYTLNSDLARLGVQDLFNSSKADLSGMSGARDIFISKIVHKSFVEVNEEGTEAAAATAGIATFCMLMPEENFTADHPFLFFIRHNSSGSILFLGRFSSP
Sequence of UniProt O75391 (O75391 whole entry): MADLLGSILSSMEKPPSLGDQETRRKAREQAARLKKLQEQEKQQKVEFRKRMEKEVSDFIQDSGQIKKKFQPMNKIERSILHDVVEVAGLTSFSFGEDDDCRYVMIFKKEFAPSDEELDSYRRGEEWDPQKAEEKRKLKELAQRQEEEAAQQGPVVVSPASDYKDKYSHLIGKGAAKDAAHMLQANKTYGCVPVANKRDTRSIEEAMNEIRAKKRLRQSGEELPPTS
Sequence of UniProt Q15738 (Q15738 whole entry): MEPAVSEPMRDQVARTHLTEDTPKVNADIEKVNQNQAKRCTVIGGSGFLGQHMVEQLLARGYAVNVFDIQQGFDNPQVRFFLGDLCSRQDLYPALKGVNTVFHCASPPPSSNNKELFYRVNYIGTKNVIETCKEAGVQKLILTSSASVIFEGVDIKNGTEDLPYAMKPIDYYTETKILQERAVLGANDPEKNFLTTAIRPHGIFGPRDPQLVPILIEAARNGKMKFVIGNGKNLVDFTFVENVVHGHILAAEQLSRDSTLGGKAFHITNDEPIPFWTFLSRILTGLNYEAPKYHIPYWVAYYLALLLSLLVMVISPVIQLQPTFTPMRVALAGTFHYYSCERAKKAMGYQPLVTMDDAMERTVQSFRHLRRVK
Sequence of UniProt P0CG13 (P0CG13 whole entry): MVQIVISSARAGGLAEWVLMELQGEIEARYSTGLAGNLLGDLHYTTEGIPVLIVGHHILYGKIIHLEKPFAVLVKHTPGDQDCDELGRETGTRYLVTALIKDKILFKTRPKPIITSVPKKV
Sequence of UniProt O00193 (O00193 whole entry): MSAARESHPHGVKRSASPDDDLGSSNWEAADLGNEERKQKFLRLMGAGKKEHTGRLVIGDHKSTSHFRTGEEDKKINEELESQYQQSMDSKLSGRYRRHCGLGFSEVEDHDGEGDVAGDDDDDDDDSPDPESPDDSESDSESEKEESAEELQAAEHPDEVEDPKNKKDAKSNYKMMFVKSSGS

Target | thermal stability z-score [1] | thermal stability z-score [2, 3] | thermal stability z-score ([2]; arsenate co-treatment: none)
DBT (UniProt P11182) | -1.75 | -0.65 | -0.0292
CCAR2 (UniProt Q8N163) | 0.358 | -0.42 | -0.615
PROSC (UniProt O94903) | -1.14 | -0.595 | 0.453
LEMD3 (UniProt Q9Y2U8) | -0.685 | 0.161 | 0.209
SPAG7 (UniProt O75391) | -0.214 | 0.493 | 0.212
OSMR (UniProt Q99650) | 1.55 | -1.48 | -0.64
SMAP (UniProt O00193) | -0.154 | 0.384 | 0.48
AGPAT3 (UniProt Q9NRZ7) | -0.114 | -0.336 | 0.305
STXBP5 (UniProt Q5T5C0) | 1.77 | 0.208 | 0.496
TMEM70 (UniProt Q9BUB7) | 0.259 | 0.461 | -0.347
EDRF1 (UniProt Q3B7T1) | -0.168 | -0.147 | -0.327
IFT140 (UniProt Q96RY7) | 0.083 | -0.182 | -0.038
TAX1BP3 (UniProt O14907) | 0.424 | 0.0819 | -0.232
PTPN6 (UniProt P29350) | -0.0221 | -0.0229 | 0.0958
SLC43A3 (UniProt Q8NBI5) | 0.807 | 0.34 | 0.53
SERPINB1 (UniProt P30740) | 0.23 | 0.391 | 0.191
NDUFAF1 (UniProt Q9Y375) | -0.0374 | -0.593 | -0.335
MRPL40 (UniProt Q9NQ50) | -0.0198 | 0.157 | 0.0972
BAIAP2L1 (UniProt Q9UHR4) | 0.177 | 0.0217 | -0.166
MATR3 (UniProt P43243) | -1.69 | 2.1 | 0.607
RAD51 (UniProt Q06609) | -0.0411 | 0.0327 | 0.256
PPM1A (UniProt P35813) | -0.154 | 0.622 | 0.096
CDK9 (UniProt P50750) | 0.544 | -0.226 | -0.263
MALT1 (UniProt Q9UDY8) | 0.37 | -0.539 | 0.249
NSDHL (UniProt Q15738) | -0.401 | 0.566 | 0.0586
FARSA (UniProt Q9Y285) | 0.0543 | -1.41 | -0.546
YRDC (UniProt Q86U90) | 0.341 | 0.45 | 0.0491
APH1A (UniProt Q96BI3) | -0.696 | 0.28 | -0.0861

Target | thermal stability z-score [1] | thermal stability z-score [2, 3] | thermal stability z-score ([2]; arsenate co-treatment: none)
DICER1 (UniProt Q9UPY3) | -0.398 | 0.656 | 0.00487
DCTN4 (UniProt Q9UJW0) | -0.11 | -0.368 | -0.0931
VPS16 (UniProt Q9H269) | 1.02 | -0.305 | 0.0437
INPP5J (UniProt Q15735) | -0.471 | -0.307 | -0.456
HSDL1 (UniProt Q3SXM5) | -1.43 | -0.0659 | -0.0958
EXOSC5 (UniProt Q9NQT4) | -0.564 | 1.79 | 1.03
NDUFS2 (UniProt O75306) | -0.577 | -0.481 | -0.617
CHTF8 (UniProt P0CG13) | 0.975 | 1.3 | 0.577
FOSL1 (UniProt P15407) | -0.444 | 0.361 | -0.0186
ANXA1 (UniProt P04083) | -0.37 | 0.957 | 0.83
PRDX2 (UniProt P32119) | -0.431 | 0.0679 | 0.162
DLGAP4 (UniProt Q9Y2H0) | -2.62 | -0.0201 | -0.367
IMPACT (UniProt Q9P2X3) | 0.103 | 0.0967 | -0.0125
COPS7A (UniProt Q9UBW8) | -0.0728 | 0.334 | 0.0778
GDPGP1 (UniProt Q6ZNW5) | -0.786 | -0.332 | -0.511
TTPAL (UniProt Q9BTX7) | 0.594 | 0.0476 | 0.0717
PKD2 (UniProt Q13563) | 0.16 | 0.277 | 0.13
EMC10 (UniProt Q5UCC4) | 0.0739 | -0.0818 | -0.577
BCS1L (UniProt Q9Y276) | 0.3 | 0.472 | 0.86
MPP7 (UniProt Q5T2T1) | -0.0635 | -0.0378 | -0.274
PUF60 (UniProt Q9UHX1) | 0.789 | 0.11 | 0.816
POLR3G (UniProt O15318) | -0.356 | -0.603 | -0.505
C19ORF53 (UniProt Q9UNZ5) | -0.988 | 0.3 | 0.508
TUFM (UniProt P49411) | -1.29 | -2.05 | -1.11
SMS (UniProt P52788) | 4.34 | 0.652 | 0.823
TMEM131 (UniProt Q92545) | 0.83 | -1.03 | 0.061
DHX34 (UniProt Q14147) | -0.164 | 0.0163 | -0.0341
